Assay results taken from patent US7511055B2, “Naphthyridin derivatives” (Hoffmann-La Roche Inc., priority 2005, dated 2009).

The compounds below were run against T1, human mGlu 5a receptor (Homo sapiens, UniProt P41594) (assay: [3H]MPEP competition binding on membranes of EBNA cells transfected with human mGlu 5a receptor). Conditions: competition with [3H]MPEP (2 nM), 1 h at 4° C., Ki=IC50/[1+L/Kd].
T1 construct: expressed in transfected cells; host or cells: EBNA cells (transient transfection); cell membrane homogenates
Method: The pharmacological activity of the compounds was tested using the following method: For binding experiments, cDNA encoding human mGlu 5a receptor was transiently transfected into EBNA cells using a procedure described by Schlaeger and Christensen [Cytotechnology 15:1-13 (1998)]. Cell membrane homogenates were stored at −80° C. until the day of assay where upon they were thawed and resuspended and polytronised in 15 mM Tris-HCl, 120 mM NaCl, 100 mM KCl, 25 mM CaCl2, 25 mM MgCl2 binding buffer at pH 7.4 to a final assay concentration of 20 μg protein/well.
Saturation isotherms were determined by addition of twelve [^3H]MPEP concentrations (0.04-100 nM) to these membranes (in a total volume of 200 μl) for 1 h at 4° C. Competition experiments were performed with a fixed concentration of [^3H]MPEP (2 nM) and IC50 values of test compounds evaluated using 11 concentrations (0.3-10,000 nM). Incubations were performed for 1 h at 4° C.
At the end of the incubation, membranes were filtered onto unifilter (96-well white microplate with bonded GF/C filter preincubated 1 h in 0.1% PEI in wash buffer, Packard BioScience, Meriden, Conn.) with a Filtermate 96 harvester (Packard BioScience) and washed 3 times with cold 50 mM Tris-HCl, pH 7.4 buffer. Nonspecific binding was measured in the presence of 10 μM MPEP. The radioactivity on the filter was counted (3 min) on a Packard Top-count microplate scintillation counter with quenching correction after addition of 45 μl of microscint 40 (Canberra Packard S.A., Zürich, Switzerland) and shaking for 20 min.
The inhibition (antagonists) curves were fitted with a four parameter logistic equation giving IC50, and Hill coefficient using iterative non linear curve fitting software (Xcel fit).
For binding experiments the Ki values of the compounds tested are given. The Ki value is defined by the following formula: Ki=IC50/[1+L/Kd] in which the IC50 values are those concentrations of the compounds tested which cause 50% inhibition of the competing radioligand ([^3H]MPEP). L is the concentration of radioligand used in the binding experiment and the Kd value of the radioligand is empirically determined for each batch of membranes prepared.

T1 sequence (P41594 21-1180 isoform P41594-2 limits assumed): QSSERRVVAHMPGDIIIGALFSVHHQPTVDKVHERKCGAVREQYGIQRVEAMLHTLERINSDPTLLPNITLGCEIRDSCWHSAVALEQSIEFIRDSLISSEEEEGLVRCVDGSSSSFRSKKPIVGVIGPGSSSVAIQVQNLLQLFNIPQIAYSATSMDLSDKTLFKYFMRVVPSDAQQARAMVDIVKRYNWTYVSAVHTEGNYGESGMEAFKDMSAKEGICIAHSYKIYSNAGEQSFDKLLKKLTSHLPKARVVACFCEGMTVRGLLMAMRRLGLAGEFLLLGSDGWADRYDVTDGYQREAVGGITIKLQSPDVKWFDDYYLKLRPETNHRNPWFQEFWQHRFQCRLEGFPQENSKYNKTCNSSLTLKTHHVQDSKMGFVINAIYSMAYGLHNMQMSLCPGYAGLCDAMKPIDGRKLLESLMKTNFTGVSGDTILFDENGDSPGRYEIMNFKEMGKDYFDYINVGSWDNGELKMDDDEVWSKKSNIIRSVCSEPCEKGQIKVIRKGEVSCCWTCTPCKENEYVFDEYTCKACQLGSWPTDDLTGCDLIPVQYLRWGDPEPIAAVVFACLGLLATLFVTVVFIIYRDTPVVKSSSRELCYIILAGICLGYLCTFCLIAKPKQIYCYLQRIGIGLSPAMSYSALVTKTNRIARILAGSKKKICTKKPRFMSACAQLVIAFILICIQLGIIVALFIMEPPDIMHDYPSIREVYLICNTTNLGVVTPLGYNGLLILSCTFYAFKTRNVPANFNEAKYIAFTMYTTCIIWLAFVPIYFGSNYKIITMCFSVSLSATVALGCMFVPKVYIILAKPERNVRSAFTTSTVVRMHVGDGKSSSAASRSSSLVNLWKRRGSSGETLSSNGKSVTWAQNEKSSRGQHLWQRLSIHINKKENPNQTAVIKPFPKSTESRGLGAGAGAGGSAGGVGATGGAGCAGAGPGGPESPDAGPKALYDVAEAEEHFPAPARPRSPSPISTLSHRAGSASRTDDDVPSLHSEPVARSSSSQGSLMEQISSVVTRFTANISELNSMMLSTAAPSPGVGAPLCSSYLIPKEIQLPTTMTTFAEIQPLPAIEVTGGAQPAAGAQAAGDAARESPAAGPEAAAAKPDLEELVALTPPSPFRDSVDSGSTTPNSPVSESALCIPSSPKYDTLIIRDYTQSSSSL

`Clc1cccc(Nc2ncc(-c3cccnc3)c3cccnc23)c1` [Example 7, (3-Chloro-phenyl)-(5-pyridin-3-yl-[1,7]naphthyridin-8-yl)-amine] was tested. Which Ki did it give?
Its Ki is 18 nM.

How did the Ki turn out when `Cc1csc(Nc2ncc(-c3cccc(C(F)(F)F)c3)c3ccc(C)nc23)n1` [Example 43, (4-Methyl-thiazol-2-yl)-[2-methyl-5-(3-trifluoromethyl-phenyl)-[1,7]naphthyridin-8-yl]-amine] was run?
The Ki was 51 nM.

How did the Ki turn out when `Fc1cncc(-c2cnc(Nc3ccnc(Cl)c3)c3ncccc23)c1` [Example 14, (2-Chloro-pyridin-4-yl)-[5-(5-fluoro-pyridin-3-yl)-[1,7]naphthyridin-8-yl]-amine] was run?
The Ki was 66 nM.

With `Fc1ccc(Nc2ncc(-c3cncnc3)c3cccnc23)nc1` [Example 19, (5-Fluoro-pyridin-2-yl)-(5-pyrimidin-5-yl-[1,7]naphthyridin-8-yl)-amine] as the compound, how does the Ki read?
The Ki was 44 nM.

`Cc1ccc2c(-c3cccc(F)c3)cnc(Nc3ccn(C)n3)c2n1` [Example 68, [5-(3-Fluoro-phenyl)-2-methyl-[1,7]naphthyridin-8-yl]-(1-methyl-1H-pyrazol-3-yl)-amine] was tested. Which Ki did it give?
The Ki was 38 nM.

How did the Ki turn out when `COc1cncc(-c2cnc(Nc3ccc(F)cn3)c3ncccc23)c1` [Example 17, (5-Fluoro-pyridin-2-yl)-[5-(5-methoxy-pyridin-3-yl)-[1,7]naphthyridin-8-yl]-amine] was run?
Its Ki is 41 nM.

For `COc1cccc(-c2cnc(Nc3nc(C)cs3)c3nc(C)ccc23)c1` [Example 42, [5-(3-Methoxy-phenyl)-2-methyl-[1,7]naphthyridin-8-yl]-(4-methyl-thiazol-2-yl)-amine], which Ki is on record?
The Ki was 56 nM.

`Clc1cccc(Nc2ncc(-c3ccc(Cl)nc3)c3cccnc23)c1` [Example 11, (3-Chloro-phenyl)-[5-(6-chloro-pyridin-3-yl)-[1,7]naphthyridin-8-yl]-amine] was tested. Which Ki did it give?
The Ki was 8 nM.

With `COc1ccc(-c2cnc(Nc3ccnc(Cl)c3)c3ncccc23)cn1` [Example 12, (2-Chloro-pyridin-4-yl)-[5-(6-methoxy-pyridin-3-yl)-[1,7]naphthyridin-8-yl]-amine] as the compound, how does the Ki read?
The Ki was 56 nM.

`Clc1cc(Nc2ncc(-c3cncnc3)c3cccnc23)ccn1` [Example 18, (2-Chloro-pyridin-4-yl)-(5-pyrimidin-5-yl-[1,7]naphthyridin-8-yl)-amine] was tested. Which Ki did it give?
The Ki was 41 nM.

How did the Ki turn out when `Cc1cccc(Nc2nccc3cccnc23)n1` [Example 1, (6-Methyl-pyridin-2-yl)-[1,7]naphthyridin-8-yl-amine] was run?
The Ki was 25 nM.

With `Fc1ccc(Nc2ncc(-c3cncc(F)c3)c3cccnc23)nc1` [Example 15, (5-Fluoro-pyridin-2-yl)-[5-(5-fluoro-pyridin-3-yl)-[1,7]naphthyridin-8-yl]-amine] as the compound, how does the Ki read?
The Ki was 66 nM.

`Clc1cc(Nc2ncc(-c3cccnc3)c3cccnc23)ccn1` [Example 8, (2-Chloro-pyridin-4-yl)-(5-pyridin-3-yl-[1,7]naphthyridin-8-yl)-amine] was tested. Which Ki did it give?
The Ki was 38 nM.

How did the Ki turn out when `Cc1cccc(Nc2ncc(-c3cccnc3)c3cccnc23)n1` [Example 6, (6-Methyl-pyridin-2-yl)-(5-pyridin-3-yl-[1,7]naphthyridin-8-yl)-amine] was run?
The Ki was 33 nM.

How did the Ki turn out when `Cc1csc(Nc2ncc(-c3cncc(C(F)(F)F)n3)c3ccc(C)nc23)n1` [Example 81, (4-Methyl-thiazol-2-yl)-[2-methyl-5-(6-trifluoromethyl-pyrazin-2-yl)-[1,7]naphthyridin-8-yl]-amine] was run?
The Ki was 51 nM.

For `Clc1cccc(Nc2nccc3cccnc23)c1` [Example 2, (3-Chloro-phenyl)-[1,7]naphthyridin-8-yl-amine], which Ki is on record?
The Ki was 89 nM.

How did the Ki turn out when `Fc1ccc(Nc2ncc(-c3cccnc3)c3cccnc23)nc1` [Example 10, (5-Fluoro-pyridin-2-yl)-(5-pyridin-3-yl-[1,7]naphthyridin-8-yl)-amine] was run?
Its Ki is 19 nM.

`Cc1ccc(Nc2ncc(-c3cccnc3)c3cccnc23)nc1` [Example 9, (5-Methyl-pyridin-2-yl)-(5-pyridin-3-yl-[1,7]naphthyridin-8-yl)-amine] was tested. Which Ki did it give?
Its Ki is 86 nM.

With `Cc1csc(Nc2nccc3cccnc23)n1` [Example 5, (4-Methyl-thiazol-2-yl)-[1,7]naphthyridin-8-yl-amine] as the compound, how does the Ki read?
The Ki was 62 nM.
